Data as given in patent US4440761A, “Interferon inducer, a process for producing the same and pharmaceutical composition containing the same” (The Kitasato Institute, priority 1980, dated 1984).
“Also recorded” adds a separate entry of the source. Where two headings read alike, the source gives them in different places.

Tests used:
interferon = details: background, cited from earlier work
[1] = 56° C. for 5 hours; cited from earlier work
spleen cell [2] = test: IF induction in vitro, rabbit spleen cells (determined in RK-13); assay type: cell-based; details: 1.0* μg/ml, control
spleen cell [3] = test: IF induction in vitro, mouse spleen cells (determined in L cells); assay type: cell-based; details: 1.0* μg/ml, control
Human spleen = test: IF induction in vitro, human spleen (determined in FL cells); assay type: cell-based; details: 1.0* μg/ml, control
Experimental: A spleen cell suspension (10^7 cells/ml) was prepared by the method of hereinafter described Experiment 1 using an Eagle MEM medium (commercial product of Nissui Seiyaku K.K., Tokyo) containing a 10% calf serum (which was replaced by a 10% fetal cattle serum in the cases of human tests), each of which fraction (1 ml) was added with a given concentration of the sample and incubated overnight at a given temperature. The cultured liquor was centrifuged to separate a supernatant which was used for determining the IF activity induced. In the case of humans, the fresh spleen was collected from a person (adult deceased by external wounds) and used for the preparation of a leucocytes suspension on each occasion, and also blood was collected from the vein at the upper arm of a person (adult), from which the serum was separated to use for the preparation of a serum suspension of each occasion.
The IF activities were determined by using the cells shown in Table 5 in a similar manner to that hereinafter described in Experiment 1.

## carthamone
interferon
  IF inducing activity: no IF inducing activity

## O=C(/C=C/c1ccc(O)cc1)C1=C(O)[C@](O)([C@@H]2O[C@H](CO)[C@@H](O)[C@H](O)[C@H]2O)C(O)=C(/C=C2/C(=O)C(C(=O)/C=C/c3ccc(O)cc3)=C(O)[C@@](O)([C@@H]3O[C@H](CO)[C@@H](O)[C@H](O)[C@H]3O)C2=O)C1=O [carthamine]
interferon
  IF inducing activity: no IF inducing activity

## pokeweed mitogen
[1]
  IF-inducing activity on heating: inactivated
interferon
  IF inducing activity: very weak; also recorded: extremely low

## neocarthamine
interferon
  IF inducing activity: no IF inducing activity

## Poly I:C
Spleen cell [2]
  IF activity in vitro: 160
Spleen cell [3]
  IF activity in vitro: 75
Human spleen
  IF activity in vitro: < 10

## phytohemagglutinin
[1]
  IF-inducing activity on heating: inactivated
interferon
  IF inducing activity: very weak
interferon; listed as phytohemagglitinin
  IF inducing activity: extremely low
